Results on one compound are retold here after article doi:10.1101/2024.07.21.604522v1 (biorxiv, 2024).

The target in the assay is T1, human ChaC1 (ChaC1p) (Homo sapiens, UniProt Q9BUX1).
T1 sequence (Q9BUX1 1-222): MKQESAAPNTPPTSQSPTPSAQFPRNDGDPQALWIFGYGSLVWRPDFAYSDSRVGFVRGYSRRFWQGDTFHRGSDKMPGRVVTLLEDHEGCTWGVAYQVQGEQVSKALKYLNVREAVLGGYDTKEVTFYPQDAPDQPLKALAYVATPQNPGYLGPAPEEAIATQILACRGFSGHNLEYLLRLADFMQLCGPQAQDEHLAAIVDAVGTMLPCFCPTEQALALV
Description: ChaC1p-Dug1p coupled assay, cysteine by ninhydrin. It is filed as biochemical.

Structures are written as SMILES. pIC50: −log10 of the molar value.

With `O=C1C=CC(=O)c2c(O)cccc21` [juglone], the pIC50 was 5.06.

What is called pIC50 is the IC50 on a negative log10 scale, so that one unit is a factor of ten. The low end stands for a high IC50, the high end for a low IC50.
